In test [1] the test system is amyloid precursor protein APP 5′UTR luciferase reporter. As to the kind of experiment: 5′UTR firefly luciferase reporter assay, APP. Format: cell-based, human. How it is done:
SH-SY5Y cells were simultaneously co-transfected with APP-5′UTR firefly luciferase construct and a Renilla control vector. Luciferase levels were assayed using a Glomax Luminometer and Stop-n-Glo luciferase reagents (standard procedure throughout). The data presented represents 8 biological repetitions and use as the active a semi refined compound of Formula II. Levels of compound were estimated based on amounts of purified compound obtained from fresh tomato tissue.
The 5′UTRs of genes which negatively associate with the progression of Alzheimer's disease—amyloid precursor protein (APP) and beta secretases (BACE) are all inhibited by treatment with a compound of Formula II, whereas the equivalent reporter levels of housekeeping genes actin and thioredoxin (TXN) are not inhibited. […] Neuroblastoma cells were transfected 24 hours prior to treatment with a compound of Formula II. After treatment, cells were prepared as described in the materials and methods. Each experiment represents between 6 and 8 biological repetitions. […]
(§1) Cells were transfected using FuGene 6 (Roche) following the manufacturer's instructions. The activities of firefly and renilla luciferase in lysates prepared from transfected cells were measured using a commercially available Luciferase reporter assay system (Promega) and light emission was measured over a 10 sec interval using a TECAN luminometer. […]

In test [2] the test system is beta secretases (BACE) 5′UTR. As to the kind of experiment: 5′UTR firefly luciferase reporter assay, BACE. The conditions noted are these: Neuroblastoma cells; FIG. 3d. In kind it is cell-based, human. As to the method:
(§2) The 5′UTRs of genes which negatively associate with the progression of Alzheimer's disease—amyloid precursor protein (APP) and beta secretases (BACE) are all inhibited by treatment with a compound of Formula II, whereas the equivalent reporter levels of housekeeping genes actin and thioredoxin (TXN) are not inhibited. […] Neuroblastoma cells were transfected 24 hours prior to treatment with a compound of Formula II. After treatment, cells were prepared as described in the materials and methods. Each experiment represents between 6 and 8 biological repetitions.
(§3) Experiments conducted using Firefly luciferase reporter plasmids containing the 5′ untranslated regions (UTRs) of the genes amyloid precursor protein (APP), thioredoxin (TXN) were conducted with reagents and materials described by Bottley et al, 2010. Experiments conducted using Firefly luciferase reporter plasmids containing the 5′ UTRs of the genes EGFR, BACE1 and Actin were conducted with reagents and materials described by Webb, 2012 (http://etheses.nottingham.ac.uk/2724/). […]
as §1

The next test deals with thioredoxin (TXN) 5′UTR. As to the kind of experiment: 5′UTR firefly luciferase reporter assay, TXN. Format: cell-based, human. The conditions noted are these: Neuroblastoma cells; FIG. 3d. How it is done:
as §2, §3, §1

For test [3], the system named is CrPV IRES-dependent translation. As to the kind of experiment: CrPV assay, IRES-dependent translation (Renilla luciferase). The conditions noted are these: 3 hours treatment. In kind it is cell-based. The text has this: FIG. 12—CrPV assay—Natural molecule targets eIF4A.
By using a well characterised luciferase based reporter assay it was further determined that this class of molecule functions as a protein synthesis inhibitor via targeting the helicase eIF4A.

The test system of test [4] is breast cancer cells MDA-MB-231. As to the kind of experiment: Cell proliferation, MDA-MB-231. The conditions noted are these: 96 hours, Formula II only. Format: cell-based. How it is done: Growth of MDA-MB-231 cell lines were slowed by the treatment with a compound of Formula II. Experiment represents 6 biological repetitions, Error=S.E.M.
(§4) Prior to treatment cells were cultured to an appropriate confluency in 96 well tissue culture plates (Fisher). Cells remained either supplemented with fresh media or treated with fresh media containing active or an equivalent volume of DMSO (vehicle control). Where used, Cisplatin™ was diluted to a stock concentration in Dimethylformamide (DMF), then handled as per the manufacturer's instructions. To determine relative cell viability, reagents WST-1 (Roche) or MTT (Sigma) were used as per the manufacturer's instructions and absorbance at 450 nm measured using a Victor plate reader (Perkin Elmer).

Test [5] has as its system SKOV3 ovarian cancer cells. Briefly: Cell proliferation, SKOV3. In kind it is cell-based. The conditions noted are these: 96 hours. How it is done: Growth of SKOV3 cell lines were slowed by the treatment with a compound of Formula II at higher doses. Experiment represents 6 biological repetitions, Error=S.E.M.
Cisplatin™ resistant SKOV-3 ovarian cancer cells were sensitised to treatment with a compound of Formula II in combination with 2.5 μM Cisplatin™ (p=0.003) (right hand bar in the figure), no effect is observed from treatment with equivalent levels of a compound of Formula II alone (left hand bar in the figure) or Cisplatin™ alone.
as §4

In test [6] the test system is SH-SY5Y neuroblastoma cancer cells. Briefly: Cell proliferation, SH-SY5Y. Format: cell-based. The conditions noted are these: 96 hours, plus 2.5 μM Cisplatin, higher doses (10 μg) of Formula II.
Test [7] relates to primary canine histocytic sarcoma tumour cells. As to the kind of experiment: Primary canine tumour cell experiments. In kind it is cell-based, dog. The conditions noted are these: Cisplatin (10 μM) plus Formula II, 6 days. As to the method:
Cells were cultured for 6 days with a single dose treatment of Cisplatin™ (10 μM) or a combination of Cisplatin™ plus a compound of Formula II (active). Images were taken after 6 days treatment and are representative of three independently treated wells. Each image (40× magnification) represents the majority of the well area and is of an equivalent area in each photograph.
Known inhibitors of protein synthesis such as hippuristanol have proven potent anti-cancer properties when used in combination with chemotherapeutic agents such as Cisplatin™ or Doxorubicin™. However hippuristanol is naturally found in coral to is scarce and expensive to obtain, furthermore it is very difficult and expensive to synthesise. […] In particular this combination has a potent effect at slowing proliferation or killing cancer cells. Slow growing and difficult to treat tumour cell types such as A549 lung cancer cells, SH-SY5Y neuroblastoma or SKOV-3 cancer cells are all sensitised by exposure to Formula II to very low doses of Cisplatin™ (FIGS. 4d, 4e, 4f and 7)—a complete kill can be achieved in both A549 and SH-SY5Y cells after a single dose treatment with g quantities of a compound of Formula II in combination with 1 μM or 2.5 μM treatments of Cisplatin™. […]

SMILES strings stand for the structures.

In the case of `CC/C=C\C/C=C\C/C=C\CCCCCCCC(=O)OC[C@H](COC1OC(CO)C(O)C(O)C1O)OC(=O)CCCCCCC/C=C\C/C=C\C/C=C\CC` (stereo partly drawn) [Formula II, 1,2-dioctadecatienyl-3-O-β-D-galactosyl-sn-glycerol], the “firefly luciferase reporter activity, APP 5′UTR” value in test [1] (Neuroblastoma cells transfected 24 hours prior, FIG. 3d) is recorded as “inhibited”. The “APP 5′UTR luciferase reporter relative to Renilla luciferase reporter” value in test [1] (SH-SY5Y cells, semi refined compound, FIG. 3a) is “selective inhibition”. Besides, the “firefly luciferase reporter activity, BACE 5′UTR” value in test [2] is listed as “inhibited”. Further, the “firefly luciferase reporter levels, TXN 5′UTR” value in the test on thioredoxin (TXN) 5′UTR is listed as “not inhibited”. In addition, the “CrPV IRES-dependent translation (Renilla luciferase signal)” value in test [3] was “but not CrPV IRES-dependent translation (Renilla luciferase signal), was inhibited”. In test [4], the “growth of MDA-MB-231 cells” value was “slowed”. Besides, the “growth of SKOV3 cells” value in test [5] (Formula II only, at higher doses) was “slowed”. Also, the “effect on SKOV-3 cells, compound alone” value in test [5] (equivalent levels of Formula II alone, FIG. 4f) is recorded as “no effect”. Also, the “sensitisation of SKOV-3 cells to Cisplatin” value in test [5] (in combination with 2.5 μM Cisplatin (p=0.003)) is “sensitised”. Besides, the “kill of SH-SY5Y cells in combination with Cisplatin” value in test [6] was “complete kill”. In test [7], the “canine tumour cells after Cisplatin plus Formula II” value was “substantially all tumour cells were killed”.
